Patent publication US11208412B2 (DAEGU-GYEONGBUK MEDICAL INNOVATION FOUNDATION, priority 2017, dated 2021)

Tests used:
Test in all cases: Kinase selectivity, DiscoverX scanMAX Kinase assay panel (% control)
Type in all cases: binding
[1] = molecular target: T1, kinases of the scanMAX Kinase assay panel (Homo sapiens, UniProt O14936); conditions: CASK; 1 uM
T1 construct: purchased DiscoverX Co. (contract measurement) scanMAX Kinase assay panel
T1 sequence (O14936 1-926): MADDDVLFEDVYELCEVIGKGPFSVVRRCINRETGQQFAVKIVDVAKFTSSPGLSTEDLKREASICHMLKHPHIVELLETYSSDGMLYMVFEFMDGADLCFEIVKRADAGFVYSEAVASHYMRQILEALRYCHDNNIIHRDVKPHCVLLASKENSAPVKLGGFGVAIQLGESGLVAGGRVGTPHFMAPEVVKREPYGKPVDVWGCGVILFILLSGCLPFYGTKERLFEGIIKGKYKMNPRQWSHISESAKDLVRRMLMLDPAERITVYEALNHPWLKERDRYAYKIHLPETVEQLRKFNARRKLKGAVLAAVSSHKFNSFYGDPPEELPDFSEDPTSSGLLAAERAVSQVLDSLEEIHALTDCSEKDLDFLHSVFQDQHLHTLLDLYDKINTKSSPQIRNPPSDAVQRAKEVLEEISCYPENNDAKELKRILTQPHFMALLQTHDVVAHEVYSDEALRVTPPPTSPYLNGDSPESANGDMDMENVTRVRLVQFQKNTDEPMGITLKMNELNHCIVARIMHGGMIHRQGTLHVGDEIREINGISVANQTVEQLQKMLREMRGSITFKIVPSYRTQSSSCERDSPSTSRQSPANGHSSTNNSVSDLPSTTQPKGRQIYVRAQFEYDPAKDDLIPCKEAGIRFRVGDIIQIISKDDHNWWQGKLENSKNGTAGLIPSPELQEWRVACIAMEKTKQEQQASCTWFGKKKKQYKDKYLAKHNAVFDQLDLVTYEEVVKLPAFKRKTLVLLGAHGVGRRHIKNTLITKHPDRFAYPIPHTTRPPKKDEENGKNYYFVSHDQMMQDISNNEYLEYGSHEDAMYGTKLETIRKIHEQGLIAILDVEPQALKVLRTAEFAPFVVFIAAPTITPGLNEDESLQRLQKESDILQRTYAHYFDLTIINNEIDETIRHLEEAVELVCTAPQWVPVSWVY
Procedure, shortened: (§1)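 Compounds tested at 1 uM against the scanMAX kinase panel. Signal expressed as % control = (compound − positive control)/(DMSO negative control − positive control) × 100, where positive control = 0% and DMSO = 100%; below 35% counted as activity on that kinase.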

[2] = molecular target: T2, kinases of the scanMAX Kinase assay panel (Homo sapiens, UniProt P48736); conditions: PIK3CG; 1 uM
T2 construct: purchased DiscoverX Co. (contract measurement) scanMAX Kinase assay panel
Procedure, shortened: as §1

[3] = molecular target: T3, kinases of the scanMAX Kinase assay panel (Homo sapiens, UniProt P37023); conditions: ACVRL1; 1 uM
T3 construct: purchased DiscoverX Co. (contract measurement) scanMAX Kinase assay panel
Procedure, shortened: as §1

[4] = molecular target: T4, kinases of the scanMAX Kinase assay panel (Homo sapiens, UniProt Q99759); conditions: MAP3K3; 1 uM
T4 construct: purchased DiscoverX Co. (contract measurement) scanMAX Kinase assay panel
T4 sequence (Q99759 1-626): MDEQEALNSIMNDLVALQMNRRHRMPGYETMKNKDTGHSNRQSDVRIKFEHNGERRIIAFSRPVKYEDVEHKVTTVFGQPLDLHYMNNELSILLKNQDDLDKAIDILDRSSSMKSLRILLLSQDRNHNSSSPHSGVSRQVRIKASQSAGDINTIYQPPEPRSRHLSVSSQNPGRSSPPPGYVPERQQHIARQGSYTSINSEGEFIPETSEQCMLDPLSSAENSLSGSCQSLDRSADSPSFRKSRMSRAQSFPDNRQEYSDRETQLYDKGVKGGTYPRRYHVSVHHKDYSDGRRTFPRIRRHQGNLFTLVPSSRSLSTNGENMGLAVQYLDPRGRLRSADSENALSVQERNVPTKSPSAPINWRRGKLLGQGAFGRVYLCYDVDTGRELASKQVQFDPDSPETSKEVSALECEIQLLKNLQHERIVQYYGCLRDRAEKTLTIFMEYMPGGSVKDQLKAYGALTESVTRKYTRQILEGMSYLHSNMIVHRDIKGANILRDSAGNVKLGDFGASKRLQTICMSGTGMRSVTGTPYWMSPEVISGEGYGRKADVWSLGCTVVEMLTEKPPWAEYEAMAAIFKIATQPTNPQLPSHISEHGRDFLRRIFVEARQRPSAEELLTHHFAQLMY
Procedure, shortened: as §1

[5] = molecular target: T5, kinases of the scanMAX Kinase assay panel (Homo sapiens, UniProt P0C1S8); conditions: kinase WEE2; 1 uM in DMSO
T5 construct: purchased DiscoverX Co. (contract measurement) scanMAX Kinase assay panel
Procedure, shortened: as §1

[6] = molecular target: T6, kinases of the scanMAX Kinase assay panel (Homo sapiens, UniProt Q2M2I8); conditions: AAK1; 1 uM
T6 construct: purchased DiscoverX Co. (contract measurement) scanMAX Kinase assay panel
Procedure, shortened: as §1

[7] = molecular target: T7, kinases of the scanMAX Kinase assay panel (Homo sapiens, UniProt P49760); conditions: CLK2; 1 uM
T7 construct: purchased DiscoverX Co. (contract measurement) scanMAX Kinase assay panel
Procedure, shortened: as §1

[8] = molecular target: T8, kinases of the scanMAX Kinase assay panel (Homo sapiens, UniProt P00519, F317L); conditions: 1 uM
T8 construct: purchased DiscoverX Co. (contract measurement) scanMAX Kinase assay panel
Procedure, shortened: as §1

[9] = molecular target: T9, kinases of the scanMAX Kinase assay panel (Homo sapiens, UniProt P57059); conditions: kinase SIK; 1 uM in DMSO
T9 construct: purchased DiscoverX Co. (contract measurement) scanMAX Kinase assay panel
Procedure, shortened: as §1

[10] = molecular target: T10, kinases of the scanMAX Kinase assay panel (Homo sapiens, UniProt Q9H2X6); conditions: HIPK2; 1 uM
T10 construct: purchased DiscoverX Co. (contract measurement) scanMAX Kinase assay panel
Procedure, shortened: as §1

[11] = molecular target: T11, kinases of the scanMAX Kinase assay panel (Homo sapiens, UniProt Q00532); conditions: CDKL1; 1 uM
T11 construct: purchased DiscoverX Co. (contract measurement) scanMAX Kinase assay panel
Procedure, shortened: as §1

[12] = molecular target: T12, kinases of the scanMAX Kinase assay panel (Homo sapiens, UniProt P06239); conditions: LCK; 1 uM
T12 construct: purchased DiscoverX Co. (contract measurement) scanMAX Kinase assay panel
Procedure, shortened: as §1

[13] = molecular target: T13, kinases of the scanMAX Kinase assay panel (Homo sapiens, UniProt Q86Z02); conditions: HIPK1; 1 uM
T13 construct: purchased DiscoverX Co. (contract measurement) scanMAX Kinase assay panel
Procedure, shortened: as §1

T2 sequence (P48736 whole entry): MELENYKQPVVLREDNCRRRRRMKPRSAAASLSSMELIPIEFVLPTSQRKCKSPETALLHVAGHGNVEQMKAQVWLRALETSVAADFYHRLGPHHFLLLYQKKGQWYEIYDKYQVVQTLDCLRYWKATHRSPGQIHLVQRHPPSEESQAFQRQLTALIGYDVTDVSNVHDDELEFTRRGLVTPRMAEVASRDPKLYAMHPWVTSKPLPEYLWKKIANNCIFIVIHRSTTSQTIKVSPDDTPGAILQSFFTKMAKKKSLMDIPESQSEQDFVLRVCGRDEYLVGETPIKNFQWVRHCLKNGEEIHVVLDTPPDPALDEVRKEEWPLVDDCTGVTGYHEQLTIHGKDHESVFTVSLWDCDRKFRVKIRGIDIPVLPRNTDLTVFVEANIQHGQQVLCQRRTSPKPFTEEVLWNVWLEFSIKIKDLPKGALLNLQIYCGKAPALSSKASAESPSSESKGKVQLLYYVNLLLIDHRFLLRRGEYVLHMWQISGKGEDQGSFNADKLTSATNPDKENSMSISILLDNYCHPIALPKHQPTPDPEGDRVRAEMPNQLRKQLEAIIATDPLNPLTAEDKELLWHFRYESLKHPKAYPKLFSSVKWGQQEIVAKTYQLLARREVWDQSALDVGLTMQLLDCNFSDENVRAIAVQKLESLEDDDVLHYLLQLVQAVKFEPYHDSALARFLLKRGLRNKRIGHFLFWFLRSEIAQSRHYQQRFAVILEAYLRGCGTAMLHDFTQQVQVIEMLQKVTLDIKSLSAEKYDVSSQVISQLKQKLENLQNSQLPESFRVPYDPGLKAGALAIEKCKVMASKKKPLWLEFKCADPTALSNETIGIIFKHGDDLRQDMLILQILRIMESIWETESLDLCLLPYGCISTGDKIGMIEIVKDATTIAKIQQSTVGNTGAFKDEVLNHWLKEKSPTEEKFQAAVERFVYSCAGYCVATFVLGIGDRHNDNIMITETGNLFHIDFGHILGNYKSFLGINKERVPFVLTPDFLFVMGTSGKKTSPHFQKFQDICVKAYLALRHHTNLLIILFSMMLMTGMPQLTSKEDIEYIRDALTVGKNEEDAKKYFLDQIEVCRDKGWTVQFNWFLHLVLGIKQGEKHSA
T9 sequence (P57059 whole entry): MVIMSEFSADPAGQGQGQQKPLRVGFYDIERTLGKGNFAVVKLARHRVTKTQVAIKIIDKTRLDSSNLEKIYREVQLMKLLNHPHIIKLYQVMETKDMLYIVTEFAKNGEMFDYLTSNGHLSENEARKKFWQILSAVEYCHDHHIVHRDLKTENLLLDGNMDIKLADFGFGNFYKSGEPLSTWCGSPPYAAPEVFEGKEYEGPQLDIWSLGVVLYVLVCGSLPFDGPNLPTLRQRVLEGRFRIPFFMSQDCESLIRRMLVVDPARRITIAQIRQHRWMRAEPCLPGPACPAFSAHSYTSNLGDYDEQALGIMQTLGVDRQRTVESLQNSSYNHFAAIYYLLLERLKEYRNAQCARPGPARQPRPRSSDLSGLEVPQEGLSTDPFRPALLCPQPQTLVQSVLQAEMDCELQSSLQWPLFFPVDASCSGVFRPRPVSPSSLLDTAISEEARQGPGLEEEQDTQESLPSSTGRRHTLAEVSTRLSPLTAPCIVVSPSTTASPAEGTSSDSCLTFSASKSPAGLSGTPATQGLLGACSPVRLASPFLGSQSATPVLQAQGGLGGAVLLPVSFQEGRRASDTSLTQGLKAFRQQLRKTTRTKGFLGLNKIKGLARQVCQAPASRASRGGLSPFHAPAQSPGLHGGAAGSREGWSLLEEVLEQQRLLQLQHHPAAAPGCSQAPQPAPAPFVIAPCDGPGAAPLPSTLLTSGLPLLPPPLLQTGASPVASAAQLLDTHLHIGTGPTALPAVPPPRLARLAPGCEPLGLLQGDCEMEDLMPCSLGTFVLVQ
T6 sequence (Q2M2I8 whole entry): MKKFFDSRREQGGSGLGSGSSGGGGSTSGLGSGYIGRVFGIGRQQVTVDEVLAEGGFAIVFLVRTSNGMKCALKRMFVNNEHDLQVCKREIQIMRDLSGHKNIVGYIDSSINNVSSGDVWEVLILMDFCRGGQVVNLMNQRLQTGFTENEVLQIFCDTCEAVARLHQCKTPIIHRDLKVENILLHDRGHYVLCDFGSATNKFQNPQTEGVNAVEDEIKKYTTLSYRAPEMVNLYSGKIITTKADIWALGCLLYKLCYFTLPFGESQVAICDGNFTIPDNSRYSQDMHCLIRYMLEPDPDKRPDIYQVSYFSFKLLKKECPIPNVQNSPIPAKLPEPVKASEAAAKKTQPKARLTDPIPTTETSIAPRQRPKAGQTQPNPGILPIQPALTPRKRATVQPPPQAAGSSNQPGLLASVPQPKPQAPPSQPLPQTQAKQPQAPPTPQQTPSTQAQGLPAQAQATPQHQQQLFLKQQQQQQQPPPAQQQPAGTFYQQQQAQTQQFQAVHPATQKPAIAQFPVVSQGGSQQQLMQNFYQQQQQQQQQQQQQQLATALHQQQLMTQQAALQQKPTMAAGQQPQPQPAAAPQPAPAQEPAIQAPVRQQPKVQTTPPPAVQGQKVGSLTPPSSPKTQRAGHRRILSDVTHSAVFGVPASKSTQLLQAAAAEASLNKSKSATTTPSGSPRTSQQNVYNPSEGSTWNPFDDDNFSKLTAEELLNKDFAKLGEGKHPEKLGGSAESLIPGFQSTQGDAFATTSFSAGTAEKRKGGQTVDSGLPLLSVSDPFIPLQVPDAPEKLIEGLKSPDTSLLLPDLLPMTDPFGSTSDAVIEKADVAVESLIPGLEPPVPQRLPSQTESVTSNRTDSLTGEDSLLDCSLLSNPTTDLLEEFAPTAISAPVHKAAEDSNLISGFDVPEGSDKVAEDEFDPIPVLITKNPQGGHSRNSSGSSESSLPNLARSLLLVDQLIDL
T5 sequence (P0C1S8 whole entry): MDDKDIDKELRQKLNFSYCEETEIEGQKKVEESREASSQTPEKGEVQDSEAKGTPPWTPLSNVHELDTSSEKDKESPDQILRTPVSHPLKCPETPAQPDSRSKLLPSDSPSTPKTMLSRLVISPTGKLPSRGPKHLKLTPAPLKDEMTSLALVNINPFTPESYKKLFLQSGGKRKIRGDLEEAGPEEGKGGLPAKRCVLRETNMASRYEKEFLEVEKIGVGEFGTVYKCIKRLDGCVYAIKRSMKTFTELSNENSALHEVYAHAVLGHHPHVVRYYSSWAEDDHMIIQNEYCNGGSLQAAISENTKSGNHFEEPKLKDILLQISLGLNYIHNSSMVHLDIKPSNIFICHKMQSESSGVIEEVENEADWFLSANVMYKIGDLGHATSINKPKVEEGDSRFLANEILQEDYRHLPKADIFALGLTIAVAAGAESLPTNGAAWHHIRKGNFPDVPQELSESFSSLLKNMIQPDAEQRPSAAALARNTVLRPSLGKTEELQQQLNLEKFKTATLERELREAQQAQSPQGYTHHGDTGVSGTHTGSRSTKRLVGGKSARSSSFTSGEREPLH
T8 sequence (P00519 whole entry F317L): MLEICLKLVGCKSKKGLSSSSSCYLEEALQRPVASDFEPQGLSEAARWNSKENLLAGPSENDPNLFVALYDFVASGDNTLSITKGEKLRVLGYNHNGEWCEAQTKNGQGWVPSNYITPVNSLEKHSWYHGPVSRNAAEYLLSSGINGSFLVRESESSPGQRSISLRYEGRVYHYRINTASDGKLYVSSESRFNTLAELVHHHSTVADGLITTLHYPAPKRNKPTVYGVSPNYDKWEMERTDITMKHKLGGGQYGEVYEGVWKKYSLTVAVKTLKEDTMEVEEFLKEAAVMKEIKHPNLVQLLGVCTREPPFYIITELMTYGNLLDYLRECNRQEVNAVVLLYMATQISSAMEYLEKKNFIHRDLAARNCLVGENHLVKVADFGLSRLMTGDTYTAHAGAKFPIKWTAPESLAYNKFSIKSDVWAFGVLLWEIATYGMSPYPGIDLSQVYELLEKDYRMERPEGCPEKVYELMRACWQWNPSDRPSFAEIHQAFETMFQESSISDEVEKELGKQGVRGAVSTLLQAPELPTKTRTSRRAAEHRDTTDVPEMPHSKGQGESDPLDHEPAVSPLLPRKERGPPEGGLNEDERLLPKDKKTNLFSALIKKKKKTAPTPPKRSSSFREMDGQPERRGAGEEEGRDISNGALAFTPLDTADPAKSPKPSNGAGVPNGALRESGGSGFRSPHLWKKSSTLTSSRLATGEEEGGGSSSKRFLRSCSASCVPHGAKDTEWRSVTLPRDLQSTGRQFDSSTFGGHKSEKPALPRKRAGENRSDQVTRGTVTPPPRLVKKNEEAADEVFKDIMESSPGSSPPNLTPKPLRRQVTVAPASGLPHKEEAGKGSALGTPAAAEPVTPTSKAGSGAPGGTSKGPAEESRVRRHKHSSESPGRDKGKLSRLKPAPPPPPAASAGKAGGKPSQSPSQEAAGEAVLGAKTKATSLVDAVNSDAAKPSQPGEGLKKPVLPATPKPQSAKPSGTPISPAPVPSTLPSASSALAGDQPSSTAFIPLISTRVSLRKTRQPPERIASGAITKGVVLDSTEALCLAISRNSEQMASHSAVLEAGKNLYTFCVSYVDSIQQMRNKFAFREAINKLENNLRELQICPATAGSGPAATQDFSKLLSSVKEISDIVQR
T11 sequence (Q00532 whole entry): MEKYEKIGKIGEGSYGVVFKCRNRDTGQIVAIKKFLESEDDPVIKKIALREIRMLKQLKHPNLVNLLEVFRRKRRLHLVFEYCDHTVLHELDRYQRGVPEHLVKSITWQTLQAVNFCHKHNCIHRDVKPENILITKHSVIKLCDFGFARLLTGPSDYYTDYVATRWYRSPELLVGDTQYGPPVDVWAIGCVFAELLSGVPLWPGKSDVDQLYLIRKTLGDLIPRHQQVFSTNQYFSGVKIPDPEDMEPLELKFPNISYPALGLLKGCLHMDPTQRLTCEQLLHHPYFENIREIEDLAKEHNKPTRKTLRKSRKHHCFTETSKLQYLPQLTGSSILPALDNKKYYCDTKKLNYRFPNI

| SMILES | remaining binding at 1 µM [1] [%] | remaining binding at 1 µM [2] [%] | remaining binding at 1 µM [3] [%] | remaining binding at 1 µM [4] [%] | remaining binding at 1 µM [5] [%] | remaining binding at 1 µM [6] [%] | remaining binding at 1 µM [7] [%] | remaining binding at 1 µM ([8]; ABL1(F317L)-nonphosphorylated) [%] | remaining binding at 1 µM ([8]; ABL1(F317L)-phosphorylated) [%] | remaining binding at 1 µM [9] [%] | remaining binding at 1 µM [10] [%] | remaining binding at 1 µM [11] [%] | remaining binding at 1 µM [12] [%] | remaining binding at 1 µM [13] [%] |
| --- | --- | --- | --- | --- | --- | --- | --- | --- | --- | --- | --- | --- | --- | --- |
| CNc1nc(Nc2ccc(C(=O)N3CCOCC3)cc2OC)nc2[nH]cc(C#N)c12 [Example 1, 2-((2-methoxy-4-(morpholine-4-carbonyl)phenyl)amino)-4-(methylamino)-7H-pyrrolo[2,3-d]pyrimidine-5-carbonitrile] | 69 | 76 | 88 | 98 | 100 | 78 | 5.9 | 91 | 48 | 97 | 47 | 89 | 100 | 61 |
| CC1(Nc2nc(Nc3cnn([C@H]4CCN(C5COC5)C[C@@H]4F)c3Cl)nc3[nH]cc(C#N)c23)CC1 [Example 52, 2-((5-chloro-1-((3S,4S)-3-fluoro-1-(oxetane-3-yl)piperidine-4-yl)-1H-pyrazole-4-yl)amino)((1-methylcyclopropyl)amino)-7H-pyrrolo[2,3-d]pyrimidine-5-carbonitrile] | 91 | 8.5 | 100 | 0.1 | 100 | 9.6 | 2.6 | 16 | 0 | 78 | 13 | 46 | 19 | 18 |
| CCNc1nc(Nc2ccc(C(=O)N3CCC(N4CCOCC4)CC3)cc2OC)nc2[nH]cc(C(F)(F)F)c12 [Example 104, (4-((4-(ethylamino)-5-(trifluoromethyl)-7H-pyrrolo[2,3-d]pyrimidine-2-yl)amino)-3-methoxyphenyl)(4-morpholinopiperidine-1-yl)methanone] | 100 | 87 | 97 | 87 | 100 | 90 | 0.9 | 74 | 35 | 100 | 14 | 88 | 100 | 13 |
